These results are taken from US20080014264A1, “NOVEL PHARMACEUTICAL COMPOSITIONS COMPRISING LEVETIRACETAM” (UCB, S.A., priority 2006, published 2008).

For data set [1] the following is noted: A. J. Gower et al., Eur. J. Pharmacol., 222, 1992; cited from earlier work.
Data set [2] can be described thus: Solubility of the active ingredient. The class given is physicochemical. An excerpt:
In fact levetiracetam is a very soluble active ingredient, so it is difficult to slow down the release. Moreover another problem consists in the reduction of the release rate, while keeping a reasonable size for a high dose of very soluble active ingredient.

Take `CC[C@H](C(N)=O)N1CCCC1=O` [(R)-(+)-alpha-ethyl-2-oxo-1-pyrrolidine acetamide]: the “activity in the treatment of epilepsy” value in data set [1] is “completely lacks activity”.
`CC[C@@H](C(N)=O)N1CCCC1=O` [levetiracetam, (S)-(−)-alpha-ethyl-2-oxo-1-pyrrolidine acetamide]: the solubility result in data set [2] was “very soluble”.
